According to a melting point compilation (Tetko et al.; mined from patent text by program, amines drawn as free bases though some values may be those of a salt):

Row | melting point [°C] | Compound
1 | 61 to 62 | CCOC(=O)c1c(-c2ccc(F)cc2)c2ccccc2n1C
2 | 81 to 83 | Cc1ccc(S(=O)(=O)OCCC2CCN(C(=O)c3ccccc3)CC2)cc1
3 | 143 to 145 | CC(C)C1C(CO)=C(c2ccc(F)cc2)C=CN1C12CC3CC(CC(C3)C1)C2 (stereo not drawn)
4 | 130 to 131 | CCCCCC(=O)C=Cc1ccc(O)c(O)c1
5 | 135 to 146 | O=C1Cc2cccc(Oc3ccccc3)c2N1
6 | 103 to 106 | CC1(C)CC(=O)C(C(=O)NS(=O)(=O)c2ccc(Cl)cc2)C(=O)C1
7 | 200 to 210 | COc1ccc(N2CCOCC2)c2sc(-c3nc4ccc(C)nc4[nH]3)nc12
8 | 107 | O=C(O)C(=NO)C(c1ccc(OCc2ccc3cc(F)ccc3n2)cc1)c1ccc(OCc2ccc3cc(F)ccc3n2)cc1
9 | 82 | CCCC(=O)OCC(=O)c1ccc(-c2ccccc2)cc1
10 | 141 to 144 | Cc1ccc(-c2c(Cl)ncnc2NS(=O)(=O)c2ccc(C(C)(C)COC3CCCCO3)cc2)cc1 (stereo not drawn)
11 | 183 to 185 | Nc1cc(OCc2ccccc2)c2ncccc2c1
12 | 63 to 65 | COC(=O)c1ccsc1N=C=S
13 | 135 | CCOC(=O)C1=C(C)NC(C)=C(C(=O)OC2CCCCC2)C1c1cccc([N+](=O)[O-])c1 (stereo not drawn)
14 | 178 to 179 | COc1ccc(C(=O)N2c3ccccc3C(n3c4ccccc4c4ccccc43)CC2CCCCCN2CCN(c3ccc(F)cc3)CC2)cc1OC (stereo not drawn)
15 | 100 to 104 | COC(=O)N1CCc2ccc(N)cc2CC1
16 | 216 to 219 | COc1ccc(C(=O)C2=C(O)C(=O)N(C3OCCO3)C2c2ccccc2)cc1 (stereo not drawn)
17 | 104 to 105 | CC(C)(C)c1cccc(C[C@@H](NC(=O)c2cccc3c2C=CCCC3)[C@@H](O)c2cccc(Cl)c2)c1 (racemic)
18 | 47 to 48 | COC(C#N)c1ccc2ccccc2c1 (stereo not drawn)

Row | melting point [°C] | Compound
19 | 244 to 246 | Cc1[nH]cnc1CC1CCc2c(C)c3cc(Cl)ccc3n2C1=O (stereo not drawn)
20 | 240 to 242 | COc1ccc(OC)c2c(Nc3ccc(C)c(O)c3)c(C#N)cnc12
21 | 206 | CNC(=O)C=C(C)C=CC=C(C)C=Cc1c(C)cc(OC)c(C)c1C
22 | 123 to 125 | COc1ccc2cc(-c3cccc(C=O)c3)cc(CCNC(C)=O)c2c1
23 | 195 to 197 | CS(=O)(=O)Oc1ccc(-c2cc3ccc(OS(C)(=O)=O)cc3s2)cc1
24 | 181 to 183 | OC(CCl)COc1ccc(-c2nc(C(F)(F)F)c[nH]2)cc1 (stereo not drawn)
25 | 102 | CC(=O)c1ccc(Oc2ccc(C(C)=O)cc2)cc1
26 | 145 to 146 | O=C(O)C(=O)c1ccc(OCc2ccc3ccccc3c2)cc1
27 | 288 to 290 | O=C(O)c1cn(C2CC2)c2c(F)c(N3CC4CC3CN4)c(F)cc2c1=O (stereo not drawn)
28 | 69 to 71 | C#CCOc1ccc(COC(C)=O)cc1OC
29 | 150 to 151 | CCOC(=O)c1c(C)nc(-c2ccccc2)nc1-c1cc([N+](=O)[O-])ccc1S(C)(=O)=O
30 | 87 to 88 | OCc1cccc(/C=C/c2ccccc2)c1
31 | 124 to 126 | CC(=O)NCCC1CCc2ccc3nc(-c4ccccc4)oc3c21 (stereo not drawn)
32 | 112 to 130 | CC(=O)Nc1nc2c(Oc3cc(-c4ccc(C(F)(F)F)cc4)c(-c4ccc(F)cc4)cn3)cccc2s1
33 | 158 | c1ccc2c(c1)C[C@H]1CSC(=Nc3nccs3)N1C2
34 | 43.5 to 51.5 | COc1ccc2c(C(=O)c3ccc(OC4CCCCC4N4CCCCCC4)cc3)c(-c3ccc(OCCN4CCCC4)cc3)sc2c1 (stereo not drawn)
35 | 80 to 83 | CC1(C)CNS(=O)(=O)N1
36 | 138 to 139 | Cc1cc(-c2c(Cl)c(=O)c2=O)c2c(C)ccc(C(C)C)cc1-2

Row | Compound | melting point [°C]
37 | COC(OC)C(C)NC1=Nc2ccc(Cl)cc2C(c2ccccc2Cl)=NC1 (stereo not drawn) | 153 to 155
38 | CCCCc1c(C(=O)c2ccc(OC)cc2)c2cc([N+](=O)[O-])ccc2n1C | 168
